From US20150175530A1, “ANTIBACTERIAL AGENTS” (priority 2012, published 2015)
Values after ≈ are worked out from the molar mass of the structure shown. Where two headings read alike, the source gives them in different places.

What was measured:
[1] = system: 3 P. aeruginosa strains (APAE001, APAE002, APAE006); assay: Protein binding: fold change in MIC in the presence of 2% HSA and 0.05% AGP, Geomean of 3 strains; format: cell-based, Pseudomonas aeruginosa; conditions: MIC in the presence of 2% HSA and 0.05% AGP divided by MIC in the absence; Geomean of 3 P. aeruginosa strains (APAE001, APAE002, APAE006)
Procedure: The effect of human serum albumin (HSA) and α-1-acid glycoprotein (AGP) from human plasma, which are known to nonspecifically bind to certain antibiotics and thereby reduce their activity (Banéres-Roquet et al. 2009 “Use of a Surface Plasmon Resonance Method to Investigate Antibiotic and Plasma Protein Interactions” Antimicrob. Agents and Chemother. 53(4):1528-1531), was assessed against 3 P. aeruginosa strains (APAE001, APAE002, APAE006). APAE001 is Pseudomonas aeruginosa ATCC27853; APAE002 is a wildtype lab strain of Pseudomonas aeruginosa known as PAM1020 or PA01. APAE006 is a strain of […]/PA01 with efflux deletions: delta mexAB-oprM::CM delta CD-oprJ::Gm delta mexEF-oprN::omega Hg. Lomovskaya, 0 et al. 1999. Use of a Genetic Approach To Evaluate the Consequences of Inhibition of Efflux Pumps in P aeruginosa. Antimicrob. Agents Chemother. 43: 1340-1346.
The standard procedure described in Susceptibility Testing was utilized with one adjustment, specifically 2% HSA and 0.05% AGP were added to the cation adjusted Mueller-Hinton Broth. The MIC for each strain of interest was then assessed in the presence and absence of HSA/AGP. Following MIC determination, the fold change in MIC was determined for each individual strain by dividing the MIC in the presence of HSA/AGP by the MIC in the absence of HSA/AGP. The protein binding Geomean was then calculated using these 3 values.

[2] = system: bacterial isolates (clinical isolates and ATCC quality control strains); assay: Minimum Inhibitory Concentrations (MICs) by broth microdilution (CLSI susceptibility testing); format: cell-based; conditions: for Minimum Inhibitory Concentrations (MICs) APAE001: APAE001 is Pseudomonas aeruginosa ATCC27853
Procedure: Bacterial isolates were cultivated from −70° C. frozen stocks by overnight passages at 35° C. in ambient air on Mueller-Hinton agar (Beckton Dickinson, Franklin Lakes, N.J.). Clinical isolates tested were obtained from various geographically diverse hospitals in the US and abroad (Focus Diagnostics, Herndon, Va. and JMI, North Liberty, Iowa). Quality control strains were from the American Type Culture Collection (ATCC; Rockville, Md.).
Minimum Inhibitory Concentrations (MICs) were determined by the broth microdilution method in accordance with the Clinical and Laboratory Standards Institute (CLSI) guidelines. In brief, organism suspensions were adjusted to a 0.5 McFarland standard to yield a final inoculum between 3×10^5 and 7×10^5 colony-forming units (CFU)/mL. Drug dilutions and inocula were made in sterile, cation adjusted Mueller-Hinton Broth (Beckton Dickinson). An inoculum volume of 100 μL was added to wells containing 100 μL of broth with 2-fold serial dilutions of drug. All inoculated microdilution trays were incubated in ambient air at 35° C. for 18-24 h. Following incubation, the lowest concentration of the drug that prevented visible growth (OD600 nm<0.05) was recorded as the MIC. Performance of the assay was monitored by the use of laboratory quality-control strains and levofloxacin, a compound with a defined MIC spectrum, in accordance with CLSI guidelines.

[3] = APAE1096 is a clinical isolate, broth microdilution, read-out: Minimum Inhibitory Concentrations (MICs) APAE1096
[4] = Pseudomonas aeruginosa, APAE002 is a wildtype lab strain of Pseudomonas aeruginosa known as PAM1020 or PA01, broth microdilution, read-out: Minimum Inhibitory Concentrations (MICs) APAE002
[5] = Pseudomonas aeruginosa, ATCC27853, APAE001 is Pseudomonas aeruginosa ATCC27853, broth microdilution, read-out: Minimum Inhibitory Concentrations (MICs) APAE001
[6] = APAE1096 is a clinical isolate, broth microdilution
[7] = APAE002 is a wildtype lab strain of Pseudomonas aeruginosa known as PAM1020 or PA01, broth microdilution
[8] = Pseudomonas aeruginosa, ATCC27853, read-out: Minimum Inhibitory Concentrations (MICs) APAE001
[9] = Pseudomonas aeruginosa, read-out: Minimum Inhibitory Concentrations (MICs) APAE002
[10] = read-out: Minimum Inhibitory Concentrations (MICs) APAE1096

SMILES | Protein Binding PB (Geomean of fold change in MIC) [1] | MIC [2, 3] [µg/mL] | MIC [2, 4] [µg/mL] | MIC [2, 5] [µg/mL] | Minimum Inhibitory Concentrations (MICs) APAE1096 [2, 6] | Minimum Inhibitory Concentrations (MICs) APAE001 ([2]; broth microdilution) | Minimum Inhibitory Concentrations (MICs) APAE002 [2, 7] | MIC [2, 8] [µg/mL] | MIC [2, 9] [µg/mL] | MIC [2, 10] [µg/mL]
CC(C)(N)[C@H](NC(=O)c1ccc(C#CC#CC2C[C@H]2C(O)CO)cc1)C(=O)NO (mixture of isomers) [Compound 25, N—((S)-3-amino-1-(hydroxyamino)-3-methyl-1-oxobutan-2-yl)-4-((2-(1,2-dihydroxyethyl)cyclopropyl)buta-1,3-diynyl)benzamide] | 11.5 | 1 to 8 (≈ 2.5 to 20 µM) | < 1 | < 1 | – | – | – | – | – | –
CC(C#CC#Cc1ccc(C(=O)N[C@H](C(=O)NO)C(C)(C)N)cc1)C(O)CO (single isomer, unassigned) [Compound 20A] | 2.0 | 8 to 16 (≈ 20.6 to 41.3 µM) | 1 to 8 (≈ 2.58 to 20.6 µM) | 1 to 8 (≈ 2.58 to 20.6 µM) | – | – | – | – | – | –
CC(C#CC#Cc1ccc(C(=O)N[C@H](C(=O)NO)C(C)(C)N)cc1)C(O)CO (single isomer, unassigned) [Compound 20B] | 1.0 | – | – | – | – | – | – | – | – | –
CC(C)(N)[C@H](NC(=O)c1ccc(C#CC#CC2C[C@H](O)[C@@H]2CO)cc1)C(=O)NO (single isomer, unassigned) [Compound 30A] | 2.5 | – | < 1 | < 1 | C (C = MIC's of greater than 8.0 μg/mL to 16.0 μg/mL) | – | – | – | – | –
CC(C)(N)[C@H](NC(=O)c1ccc(C#CC#CC2CC(O)[C@@H]2CO)cc1)C(=O)NO (single isomer, unassigned) [Compound 30B] | 3.2 | – | – | – | B (B = MIC's of greater than 1.0 μg/mL to 8.0 μg/mL) | A (A = MIC's of 1.0 μg/mL or less) | A (A = MIC's of 1.0 μg/mL or less) | – | – | –
CC(C)(N)[C@H](NC(=O)c1ccc(C#CC#CC2C[C@@H](O)[C@H]2CO)cc1)C(=O)NO (single isomer, unassigned) [Compound 31A] | 2.5 | – | 1 to 8 (≈ 2.5 to 20 µM) | 1 to 8 (≈ 2.5 to 20 µM) | C (C = MIC's of greater than 8.0 μg/mL to 16.0 μg/mL) | – | – | – | – | –
CC(C)(N)[C@H](NC(=O)c1ccc(C#CC#CC2CC(O)[C@H]2CO)cc1)C(=O)NO (single isomer, unassigned) [Compound 31B] | 3.2 | – | – | – | B (B = MIC's of greater than 1.0 μg/mL to 8.0 μg/mL) | A (A = MIC's of 1.0 μg/mL or less) | A (A = MIC's of 1.0 μg/mL or less) | – | – | –
CC(C)(N)[C@H](NC(=O)c1ccc(C#CC#CCO)cc1)C(=O)NO [Compound 1, (S)—N-(3-amino-1-(hydroxyamino)-3-methyl-1-oxobutan-2-yl)-4-(5-hydroxypenta-1,3-diynyl)benzamide] | 4.1 | – | – | – | – | – | – | < 1 | < 1 | < 1
CC(C)(N)[C@H](NC(=O)c1ccc(C#CCO)cc1)C(=O)NO [Compound 2, (S)—N-(3-amino-1-(hydroxyamino)-3-methyl-1-oxobutan-2-yl)-4-(3-hydroxyprop-1-ynyl)benzamide] | 1.3 | 8 to 16 (≈ 26.2 to 52.4 µM) | 1 to 8 (≈ 3.28 to 26.2 µM) | < 1 | – | – | – | – | – | –
CC(C)(N)[C@H](NC(=O)c1ccc(C#C/C=C/CO)cc1)C(=O)NO [Compound 3, (S,E)-N-(3-amino-1-(hydroxyamino)-3-methyl-1-oxobutan-2-yl)-4-(5-hydroxypent-3-en-1-ynyl)benzamide] | 1.3 | 1 to 8 (≈ 3.02 to 24.1 µM) | < 1 | < 1 | – | – | – | – | – | –
CC(C)(O)[C@H](NC(=O)c1ccc(C#CC#CCO)cc1)C(=O)NO [Compound 4, (S)—N-(3-hydroxy-1-(hydroxyamino)-3-methyl-1-oxobutan-2-yl)-4-(5-hydroxypenta-1,3-diynyl)benzamide] | – | 1 to 8 (≈ 3.03 to 24.2 µM) | < 1 | < 1 | – | – | – | – | – | –
CNC(C)(C)[C@H](NC(=O)c1ccc(C#CC#CCO)cc1)C(=O)NO [Compound 5, (S)—N-(1-(hydroxyamino)-3-methyl-3-(methylamino)-1-oxobutan-2-yl)-4-(5-hydroxypenta-1,3-diynyl)benzamide] | 1.6 | < 1 | < 1 | < 1 | – | – | – | – | – | –
CC(C)(NCCO)[C@H](NC(=O)c1ccc(C#CC#CCO)cc1)C(=O)NO [Compound 6, (S)—N-(1-(hydroxyamino)-3-(2-hydroxyethylamino)-3-methyl-1-oxobutan-2-yl)-4-(5-hydroxypenta-1,3-diynyl)benzamide] | 2.6 | 1 to 8 (≈ 2.68 to 21.4 µM) | < 1 | < 1 | – | – | – | – | – | –
CC(C)(N)[C@H](NC(=O)c1ccc(C#CC#CCCO)cc1)C(=O)NO [Compound 7, (S)—N-(3-amino-1-(hydroxyamino)-3-methyl-1-oxobutan-2-yl)-4-(6-hydroxyhexa-1,3-diynyl)benzamide] | 2.5 | < 1 | < 1 | < 1 | – | – | – | – | – | –
CC(C)(N)[C@H](NC(=O)c1ccc(C#CCCO)cc1)C(=O)NO [Compound 8, (S)—N-(3-amino-1-(hydroxyamino)-3-methyl-1-oxobutan-2-yl)-4-(4-hydroxybut-1-ynyl)benzamide] | 0.9 | 8 to 16 (≈ 25.1 to 50.1 µM) | 1 to 8 (≈ 3.13 to 25.1 µM) | 1 to 8 (≈ 3.13 to 25.1 µM) | – | – | – | – | – | –
CNC(C)(C)[C@H](NC(=O)c1ccc(C#CC#CCCO)cc1)C(=O)NO [Compound 9, (S)—N-(1-(hydroxyamino)-3-methyl-3-(methylamino)-1-oxobutan-2-yl)-4-(6-hydroxyhexa-1,3-diynyl)benzamide] | 1.5 | – | – | – | – | – | – | < 1 | < 1 | < 1
CCNC(C)(C)[C@H](NC(=O)c1ccc(C#CC#CCCO)cc1)C(=O)NO [Compound 10, (S)—N-(3-(ethylamino)-1-(hydroxyamino)-3-methyl-1-oxobutan-2-yl)-4-(6-hydroxyhexa-1,3-diynyl)benzamide] | 2.2 | – | – | – | – | – | – | < 1 | < 1 | < 1
CC(C)(NCCO)[C@H](NC(=O)c1ccc(C#CC#CCCO)cc1)C(=O)NO [Compound 11, (S)—N-(1-(hydroxyamino)-3-(2-hydroxyethylamino)-3-methyl-1-oxobutan-2-yl)-4-(6-hydroxyhexa-1,3-diynyl)benzamide] | 1.5 | 1 to 8 (≈ 2.58 to 20.6 µM) | < 1 | < 1 | – | – | – | – | – | –
Cc1cc(CNC(C)(C)[C@H](NC(=O)c2ccc(C#CC#CCCO)cc2)C(=O)NO)no1 [Compound 12, (S)—N-(1-(hydroxyamino)-3-methyl-3-((5-methylisoxazol-3-yl)methylamino)-1-oxobutan-2-yl)-4-(6-hydroxyhexa-1,3-diynyl)benzamide] | 2.9 | 8 to 16 (≈ 18.2 to 36.5 µM) | 1 to 8 (≈ 2.28 to 18.2 µM) | 1 to 8 (≈ 2.28 to 18.2 µM) | – | – | – | – | – | –
CC(C)(N)[C@H](NC(=O)c1ccc(C#CC#CC(O)CCO)cc1)C(=O)NO (stereo partly drawn) [Compound 46, N—((S)-3-amino-1-(hydroxyamino)-3-methyl-1-oxobutan-2-yl)-4-(5,7-dihydroxyhepta-1,3-diyn-1-yl)benzamide] | – | 1 to 8 (≈ 2.68 to 21.4 µM) | < 1 | < 1 | – | – | – | – | – | –
CC(C)(O)[C@H](NC(=O)c1ccc(C#CC#CC(O)CO)cc1)C(=O)NO (stereo partly drawn) [Compound 60, 4-(5,6-dihydroxyhexa-1,3-diyn-1-yl)-N—((S)-3-hydroxy-1-(hydroxyamino)-3-methyl-1-oxobutan-2-yl)benzamide] | – | – | – | 1 to 8 (≈ 2.77 to 22.2 µM) | – | – | – | – | – | –
